Experimental data reported in ChEMBL document CHEMBL4251604, “Design, synthesis and biological evaluation of 1, 4-dihydro indeno[1,2-c] pyrazole linked oxindole analogues as potential anticancer agents targeting tubulin and inducing p53 dependent apoptosis” (Eur J Med Chem, 2018).
The source made the active and inactive calls. The rule behind the calls is not given here.

What was measured:
[1] = tested on: HeLa; experiment: Antiproliferative activity against human HeLa cells after 24 hrs by SRB assay; type: functional, cell-based
[2] = tested on: A549; experiment: Antiproliferative activity against human A549 cells after 24 hrs by SRB assay; type: functional, cell-based; conditions: A549, 24 h
[3] = tested on: MDA-MB-231; experiment: Antiproliferative activity against human MDA-MB-231 cells after 24 hrs by SRB assay; type: functional, cell-based; conditions: MDA-MB-231, 24 h
[4] = tested on: HEK293; experiment: Antiproliferative activity against HEK293 cells after 24 hrs by SRB assay; type: cell-based; conditions: Homo sapiens, HEK293, 24 h
[5] = tested on: HeLa; experiment: Cell cycle arrest in human HeLa cells assessed as accumulation of cells at G2/M phase at 5 uM after 24 hrs by propidium iodide staining-based flow cytometric analysis (reference value: 16.4%); type: functional
[6] = tested on: HeLa; experiment: Inhibition of microtubules in human HeLa cells assessed as induction of disorganized spindle fibers formation at 5 uM after 24 hrs by DAPI staining-based confocal microscopic analysis; type: cell-based
[7] = molecular target: Tubulin (Homo sapiens) (UniProt P68371+Q9H4B7+P0DPH7+P68366+Q13509+Q71U36+P04350+Q3ZCM7+P07437+P68363+Q9BQE3+Q6PEY2+Q13885+Q9BVA1+Q9BUF5); experiment: Inhibition of tubulin polymerization in human HeLa cells assessed as reduction in polymerized tubulin expression at 5 uM affter 24 hrs by Western blot analysis; type: cell-based
[8] = tested on: HeLa; experiment: Inhibition of microtubules in human HeLa cells assessed as induction of cell cycle arrest in metaphase at 5 uM after 24 hrs by DAPI staining-based confocal microscopic analysis
[9] = tested on: HeLa; experiment: Inhibition of microtubules in human HeLa cells assessed as increase in cyclin B1 protein level at 5 uM affter 24 hrs by Western blot analysis; type: cell-based
[10] = tested on: HeLa; experiment: Inhibition of microtubules in human HeLa cells assessed as increase in CDK1 protein level at 5 uM affter 24 hrs by Western blot analysis; type: cell-based
[11] = tested on: HeLa; experiment: Induction of apoptosis in human HeLa cells assessed as increase in caspase-3 activation at 5 uM after 24 hrs by fluorescence assay; type: functional, cell-based
[12] = tested on: HeLa; experiment: Induction of apoptosis in human HeLa cells assessed as increase in p53 expression at 5 uM after 24 hrs by Western blot analysis; type: functional, cell-based
[13] = tested on: HeLa; experiment: Induction of apoptosis in human HeLa cells assessed as increase in p21 expression at 5 uM after 24 hrs by Western blot analysis; type: functional, cell-based
[14] = tested on: HeLa; experiment: Induction of apoptosis in human HeLa cells assessed as increase in Bax expression at 5 uM after 24 hrs by Western blot analysis; type: functional, cell-based
[15] = tested on: HeLa; experiment: Induction of apoptosis in human HeLa cells assessed as increase in p53 expression at 5 uM after 24 hrs by DAPI staining-based immunocytochemistry; type: functional, cell-based
[16] = tested on: HeLa; experiment: Induction of apoptosis in human HeLa cells assessed as increase in Bax expression at 5 uM after 24 hrs by DAPI staining-based immunocytochemistry; type: functional, cell-based

| SMILES | IC50 [1] [µM] | IC50 [2] [µM] | IC50 [3] [µM] | IC50 [4] [µM] | also measured |
| --- | --- | --- | --- | --- | --- |
| COc1ccc2c(c1)-c1n[nH]c(/C=C3\C(=O)Nc4cc(Br)ccc43)c1C2 | 25.4 | 26.1 | 23.4 | 28.6 | – |
| COc1ccc2c(c1)/C(=C/c1[nH]nc3c1Cc1cc(OC)c(OC)cc1-3)C(=O)N2 | 2.58 | 3.43 | 4.14 | 5.1 | Activity [5]: 31.3%; inhibition [6]: Active; inhibition [7]: Active; inhibition [8]: Active; inhibition [9]: Active; inhibition [10]: Active |
| COc1cc2c(cc1OC)-c1n[nH]c(/C=C3\C(=O)Nc4ccc(Br)cc43)c1C2 | 11.5 | 17.1 | 18.7 | 19.6 | – |
| COc1cc2c(cc1OC)-c1n[nH]c(/C=C3\C(=O)Nc4ccccc43)c1C2 | 2.16 | 2.92 | 3.45 | 4.36 | Activity [5]: 23.6%; inhibition [6]: Active; inhibition [7]: Active; Activity [11]: Active; inhibition [8]: Active; inhibition [9]: Active; inhibition [10]: Active |
| COc1ccc(/C=C\c2cc(OC)c(OC)c(OC)c2)cc1O [COMBRETASTATIN A4] | 1.43 | 1.15 | 0.92 | 1.73 | Activity [5]: 55.8%; inhibition [6]: Active; inhibition [8]: Active |
| O=C1Nc2ccc(Cl)cc2/C1=C/c1[nH]nc2c1Cc1ccccc1-2 | 15.2 | 20.5 | 16.8 | 24.3 | – |
| COc1cc2c(cc1OC)-c1n[nH]c(/C=C3\C(=O)Nc4cc([N+](=O)[O-])ccc43)c1C2 | 30.7 | 34.4 | 29.9 | 36.7 | – |
| COc1ccc2c(c1)-c1n[nH]c(/C=C3\C(=O)Nc4ccc(Cl)cc43)c1C2 | 17.5 | 17.6 | 20.8 | 27.4 | – |
| COc1cc2c(cc1OC)-c1n[nH]c(/C=C3\C(=O)Nc4ccc(Cl)cc43)c1C2 | 8.96 | 13.5 | 12.3 | 9.21 | – |
| O=C1Nc2cc(Br)ccc2/C1=C/c1[nH]nc2c1Cc1ccccc1-2 | 30.7 | 35.6 | 29.7 | 34.2 | – |
| COc1cc2c(cc1OC)-c1n[nH]c(/C=C3\C(=O)Nc4cc(Br)ccc43)c1C2 | 20.5 | 22.5 | 20.4 | 24.6 | – |
| COc1ccc2c(c1)-c1n[nH]c(/C=C3\C(=O)Nc4ccc(Br)cc43)c1C2 | 30.9 | 29.8 | 34.1 | 35.8 | – |
| O=C1Nc2ccccc2/C1=C/c1[nH]nc2c1Cc1ccccc1-2 | 11.7 | 16.6 | 19 | 24.3 | – |
| O=C1Nc2cc(Cl)ccc2/C1=C/c1[nH]nc2c1Cc1ccccc1-2 | 14.6 | 20.5 | 24.3 | 19.4 | – |
| O=C1Nc2ccc(Br)cc2/C1=C/c1[nH]nc2c1Cc1ccccc1-2 | 16.9 | 21.1 | 20.3 | 22.5 | – |
| COc1ccc2c(c1)/C(=C/c1[nH]nc3c1Cc1ccccc1-3)C(=O)N2 | 30.1 | 29.6 | 26.7 | 33.9 | – |
| COc1ccc2c(c1)-c1n[nH]c(/C=C3\C(=O)Nc4ccccc43)c1C2 | 16 | 20.6 | 19.3 | 22.5 | – |
| COc1cc2c(cc1OC)-c1n[nH]c(/C=C3\C(=O)Nc4cc(Cl)ccc43)c1C2 | 1.33 | 2.44 | 2.08 | 2.97 | Activity [5]: 30.3%; inhibition [6]: Active; inhibition [7]: Active; Activity [12]: Active; Activity [13]: Active; Activity [14]: Active; Activity [15]: Active; Activity [16]: Active; Activity [11]: Active; inhibition [8]: Active; inhibition [9]: Active; inhibition [10]: Active |
| COc1ccc2c(c1)-c1n[nH]c(/C=C3\C(=O)Nc4cc(Cl)ccc43)c1C2 | 17 | 20.9 | 19 | 21.9 | – |
| COc1ccc2c(c1)-c1n[nH]c(/C=C3\C(=O)Nc4ccc([N+](=O)[O-])cc43)c1C2 | 22.1 | 26 | 29.2 | 30.8 | – |
